What all share (assay type): biochemical
One experiment addresses SIK1 (Homo sapiens, UniProt P57059). As to the kind of experiment: Enzymatic activity assay SIK1, RapidFire mass spectrometry (phosphorylation of CHK-peptide). The note with it: RapidFire MS, inhibition of SIK1; read-out: SIK1 RF IC50. As to the method:
(§1) Assay description SIK1-3, RapidFire:
(§2) In the presence of SIK2 (resp. SIK1 or SIK3) and ATP the CHK-peptide ([…] with C-terminal arginine amide modification) were phosphorylated at one of the four feasible serine's. Only one phosphorylation is observed under the assay conditions. 60 nl of each compound dilution series (12 point; dilution factor 3, generally 30 μM to 170 pM) in DMSO were transferred by acoustic dispensing to the assay plate and 30 min pre-incubated (ambient temperature) after the addition of 5 μl SIK1 (5 nM) resp. 5 μl SIK2 (0.5 nM) or 7 μl SIK3 (1.5 nM) in assay-buffer (12.5 mM HEPES (pH 7.0), 10 mM magnesium acetate, 0.005% BSA). 10 μM CHK-peptide solution and 5 μl 100 μM ATP for SIK1 & SIK2 resp. 3 μl for SIK3 in assay-buffer were added and incubated ambient for 45 min. 40 μl 0.125% formic acid in water were added to quench the reaction. RapidFire (RF) Mass Spectrometry was utilized for data generation as described below. The multiple charged species (3-5 charges) for the phosphorylated and non-phosphorylated form measured by MRM (Multiple Reaction Monitoring; API5000 or 6500+) or EIC (Extracted Ion Current; QToF) were summed up and the ratio calculated (sum phosphorylated species/sum all species) for data evaluation. Normalization was performed by Genedata software based on the non-inhibition control DMSO and the commercially available SIK inhibitor @ 1 μM YKL-05-099 (CAS number 1936529-65-5). The results of the assay are expressed in half-maximal inhibitory concentrations (IC50s) and are summarized below in Table 1.
(§3) Samples were aspirated by vacuum for max. 600 ms and loaded to C4-cartridge (Agilent; #G9203A) for 3000 ms@1.5 ml/min with 0.1% formic acid in water. Afterwards samples were transferred to the APT5000 (APT6500+) or QToF mass spectrometer for 4000 ms@1.25 ml/min with 90% acetonitrile; 10% water; 0.007% TFA; 0.093 formic acid. The cartridge was reconditioned for additional 500 ms with 0.1% formic acid in water
(§4) All MS analyses using the following MS-setup in MRM mode: Electrospray positive; Ion Spray Voltage: 4000V; Temperature: 550° C.; Collision Gas: 5; Curtain Gas: 15; Gas1: 40; Gas 2: 42; EP: 10
(§5) MS-Setup Agilent QToF 6545
(§6) All MS analyses using the following MS-setup in Mode MS: Dual AJS Electrospray positive; VCap: 3000V; Drying & Sheath gas: 340° C.@81/min; Nebulizer: 60 psig; Nozzle Voltage: 2000V; Fragmentor: 130V; Skimmer: 35V; Oct1 RF Vpp: 700V; Ref masses on@5spectra/s

Another experiment deals with SIK2 (Homo sapiens, UniProt Q9H0K1). As to the kind of experiment: Enzymatic activity assay SIK2, RapidFire mass spectrometry (phosphorylation of CHK-peptide). The note with it: RapidFire MS, inhibition of SIK2; read-out: SIK2 RF IC50. As for the experimental part: as §1
Sequence of SIK2 (Q9H0K1 whole entry): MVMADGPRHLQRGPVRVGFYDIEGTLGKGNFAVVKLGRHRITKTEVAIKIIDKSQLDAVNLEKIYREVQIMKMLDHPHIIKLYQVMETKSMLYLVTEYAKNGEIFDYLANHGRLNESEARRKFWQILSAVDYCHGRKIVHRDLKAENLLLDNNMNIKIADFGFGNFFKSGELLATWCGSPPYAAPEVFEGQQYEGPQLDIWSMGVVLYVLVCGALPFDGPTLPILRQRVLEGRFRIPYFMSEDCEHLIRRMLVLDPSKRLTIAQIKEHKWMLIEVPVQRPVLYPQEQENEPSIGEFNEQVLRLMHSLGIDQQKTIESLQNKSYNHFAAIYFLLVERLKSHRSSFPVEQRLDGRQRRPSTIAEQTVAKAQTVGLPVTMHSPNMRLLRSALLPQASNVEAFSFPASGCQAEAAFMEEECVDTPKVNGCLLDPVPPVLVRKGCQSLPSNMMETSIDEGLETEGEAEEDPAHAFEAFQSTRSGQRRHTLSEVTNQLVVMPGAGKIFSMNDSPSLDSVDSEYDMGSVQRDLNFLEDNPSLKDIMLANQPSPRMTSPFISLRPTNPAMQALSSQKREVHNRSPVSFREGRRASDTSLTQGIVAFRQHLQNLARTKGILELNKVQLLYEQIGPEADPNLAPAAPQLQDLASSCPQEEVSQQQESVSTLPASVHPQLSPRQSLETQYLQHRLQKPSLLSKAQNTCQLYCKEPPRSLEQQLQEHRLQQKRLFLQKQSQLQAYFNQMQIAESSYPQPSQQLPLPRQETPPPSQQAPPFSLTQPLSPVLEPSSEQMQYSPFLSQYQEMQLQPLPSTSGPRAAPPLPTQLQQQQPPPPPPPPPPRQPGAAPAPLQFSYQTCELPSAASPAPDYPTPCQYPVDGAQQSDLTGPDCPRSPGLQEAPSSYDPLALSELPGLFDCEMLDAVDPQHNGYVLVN
as §2, with “Only one phosphorylation is observed under the assay conditions. 60 nl of each compound dilution series (12 point; dilution factor 3, generally 30 μM to 170 pM) in DMSO were transferred by acoustic dispensing to the assay plate and 30 min pre-incubated (ambient temperature) after the addition of 5 μl SIK1 (5 nM) resp.” left out, “1936529-65-5).” for “1936529-65-5). The results of the assay are expressed in half-maximal inhibitory concentrations (IC50s) and are summarized below in Table 1.”
as §3, §4, §5, §6

A further experiment deals with SIK3 (Homo sapiens, UniProt Q9Y2K2). In words: Enzymatic activity assay SIK3, RapidFire mass spectrometry (phosphorylation of CHK-peptide). The note with it: RapidFire MS, inhibition of SIK3; read-out: SIK3 RF IC50. As to the method:
as §1, §2, §3, §4, §5, §6

SMILES strings stand for the structures.

Sequence of SIK3 (Q9Y2K2 whole entry): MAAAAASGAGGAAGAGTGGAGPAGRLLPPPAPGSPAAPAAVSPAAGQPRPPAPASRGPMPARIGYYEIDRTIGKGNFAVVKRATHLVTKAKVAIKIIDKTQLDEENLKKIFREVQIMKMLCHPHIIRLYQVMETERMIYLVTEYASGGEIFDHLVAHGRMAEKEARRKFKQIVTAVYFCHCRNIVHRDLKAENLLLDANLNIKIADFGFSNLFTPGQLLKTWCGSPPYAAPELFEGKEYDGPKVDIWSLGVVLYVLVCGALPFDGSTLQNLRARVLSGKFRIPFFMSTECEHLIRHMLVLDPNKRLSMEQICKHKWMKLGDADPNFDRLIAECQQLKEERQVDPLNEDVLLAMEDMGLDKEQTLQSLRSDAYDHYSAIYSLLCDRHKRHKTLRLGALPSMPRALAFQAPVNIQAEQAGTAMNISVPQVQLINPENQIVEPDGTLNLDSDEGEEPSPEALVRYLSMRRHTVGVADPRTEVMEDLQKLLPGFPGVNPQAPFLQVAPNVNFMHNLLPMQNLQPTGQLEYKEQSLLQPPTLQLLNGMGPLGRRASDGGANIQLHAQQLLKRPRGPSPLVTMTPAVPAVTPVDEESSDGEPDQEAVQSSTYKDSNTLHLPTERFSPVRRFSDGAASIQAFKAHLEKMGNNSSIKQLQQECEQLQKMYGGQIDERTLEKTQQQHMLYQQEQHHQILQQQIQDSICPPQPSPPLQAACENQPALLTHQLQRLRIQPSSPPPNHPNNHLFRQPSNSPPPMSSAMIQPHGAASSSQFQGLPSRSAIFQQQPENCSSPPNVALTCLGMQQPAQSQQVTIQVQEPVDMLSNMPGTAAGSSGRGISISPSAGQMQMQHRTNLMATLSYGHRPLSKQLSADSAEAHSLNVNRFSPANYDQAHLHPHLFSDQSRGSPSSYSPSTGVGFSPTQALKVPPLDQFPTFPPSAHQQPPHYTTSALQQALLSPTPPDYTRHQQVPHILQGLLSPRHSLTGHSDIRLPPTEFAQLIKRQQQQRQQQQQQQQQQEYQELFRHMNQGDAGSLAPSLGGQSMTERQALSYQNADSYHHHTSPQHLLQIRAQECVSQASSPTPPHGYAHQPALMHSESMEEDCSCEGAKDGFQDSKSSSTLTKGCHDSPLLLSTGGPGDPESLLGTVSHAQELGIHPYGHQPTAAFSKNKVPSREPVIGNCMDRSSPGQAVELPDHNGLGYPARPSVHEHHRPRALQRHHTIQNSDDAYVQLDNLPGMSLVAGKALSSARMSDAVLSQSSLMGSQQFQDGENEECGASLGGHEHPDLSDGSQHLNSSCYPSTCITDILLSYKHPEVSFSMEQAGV
Sequence of SIK1 (P57059 whole entry): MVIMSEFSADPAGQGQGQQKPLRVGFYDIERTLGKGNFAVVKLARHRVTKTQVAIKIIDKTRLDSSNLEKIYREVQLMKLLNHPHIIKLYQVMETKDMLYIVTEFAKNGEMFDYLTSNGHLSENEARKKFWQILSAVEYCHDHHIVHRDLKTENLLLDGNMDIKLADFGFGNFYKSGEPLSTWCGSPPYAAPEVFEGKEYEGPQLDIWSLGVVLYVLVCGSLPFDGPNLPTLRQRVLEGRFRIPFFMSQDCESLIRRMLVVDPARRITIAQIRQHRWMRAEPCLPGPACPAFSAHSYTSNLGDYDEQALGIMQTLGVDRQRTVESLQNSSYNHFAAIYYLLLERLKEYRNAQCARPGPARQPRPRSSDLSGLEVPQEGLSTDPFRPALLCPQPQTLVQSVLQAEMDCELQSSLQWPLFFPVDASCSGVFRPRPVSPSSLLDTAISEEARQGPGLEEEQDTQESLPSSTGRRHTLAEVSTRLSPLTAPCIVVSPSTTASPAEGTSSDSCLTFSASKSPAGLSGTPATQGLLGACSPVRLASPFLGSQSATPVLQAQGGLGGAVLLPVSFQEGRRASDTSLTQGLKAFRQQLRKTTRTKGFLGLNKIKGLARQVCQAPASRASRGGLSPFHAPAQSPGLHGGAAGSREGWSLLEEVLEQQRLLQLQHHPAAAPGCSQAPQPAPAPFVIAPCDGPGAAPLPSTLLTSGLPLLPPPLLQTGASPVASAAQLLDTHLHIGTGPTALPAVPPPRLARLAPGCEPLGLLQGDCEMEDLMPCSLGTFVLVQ

What is called IC50 is the concentration at which inhibition is half-maximal. In the case of `Cc1ccc(Nc2ccc3c(c2)ncn3-c2ccc(C(C)O)c(N3CCOC(C#N)C3)n2)nn1` (stereo not drawn) [Example 360, 4-[3-(1-hydroxyethyl)-6-[5-[(6-methylpyridazin-3-yl)amino]benzimidazol-1-yl]-2-pyridyl]morpholine-2-carbonitrile], the concentration for half-maximal inhibition (IC50) on SIK1 was 2320 nM; on SIK2 it was 42.3 nM; on SIK3 it was 7.9 nM.
As to `Cc1ccc(Nc2ccc3c(c2)ncn3-c2ccc(C(C)O)c(-c3cc(F)ncc3C)n2)nn1` (stereo not drawn) [Example 168, 1-[2-(2-Fluoro-5-methyl-4-pyridyl)-6-[5-[(6-methylpyridazin-3-yl)amino]benzimidazol-1-yl]-3-pyridyl]ethanol], the IC50 on SIK1 stood at 1760 nM; on SIK2 it was 39.9 nM; at SIK3, 8.6 nM.
For the compound `Cc1ccc(Nc2ccc3c(c2)ncn3-c2ccc(C(O)C(F)F)c(-n3nc(C#N)cc3C)n2)nn1` (stereo not drawn) [Example 198, 1-[3-(2,2-Difluoro-1-hydroxy-ethyl)-6-[5-[(6-methylpyridazin-3-yl)amino]benzimidazol-1-yl]-2-pyridyl]-5-methyl-pyrazole-3-carbonitrile], the concentration for half-maximal inhibition (IC50) on SIK1 turned out to be 391 nM; on SIK2, 7 nM; at SIK3, 1.8 nM.
For the compound `Cc1ccc(Nc2ccc3c(c2)ncn3-c2ccc(C(C)O)c(C(=O)NCC(F)(F)F)n2)nn1` (stereo not drawn) [Example 124, 3-(1-Hydroxyethyl)-6-[5-[(6-methylpyridazin-3-yl)amino]benzimidazol-1-yl]-N-(2,2,2-trifluoroethyl)pyridine-2-carboxamide; formic acid], the values for the IC50 on SIK1, at SIK2 and on SIK3 were 1520 nM, 36 nM and 10.1 nM, respectively.
As to `Cc1ccc(Nc2ccc3c(c2)ncn3-c2ccc(C(C)O)c(N3CC4CC3CC4(F)F)n2)nn1` (stereo not drawn) [Example 322, 1-[2-(5,5-difluoro-2-azabicyclo[2.2.1]heptan-2-yl)-6-[5-[(6-methylpyridazin-3-yl)amino]benzimidazol-1-yl]-3-pyridyl]ethanol], the IC50 is 966 nM on SIK1, 16.3 nM on SIK2 and 2.4 nM at SIK3.
Turning to `COc1cc(C(F)F)nn1-c1nc(-n2cnc3ccc(Nc4ccc(C)nn4)cc32)ccc1C(C)O` (stereo not drawn) [Example 397, 1-[2-[3-(difluoromethyl)-5-methoxy-pyrazol-1-yl]-6-[6-[(6-methylpyridazin-3-yl)amino]benzimidazol-1-yl]-3-pyridyl]ethanol], the IC50 at SIK1 came out at 37 nM; on SIK2, 20.5 nM; at SIK3, 172 nM.
As to `COc1cc2ncn(-c3ccc(CO)c(N4CCCC4=O)n3)c2cc1OC` [Example 33, 1-(6-(5,6-Dimethoxy-1H-benzo[d]imidazol-1-yl)-3-(hydroxymethyl)pyridin-2-yl)pyrrolidin-2-one], the results for the IC50 on SIK1, at SIK2 and on SIK3 were 320 nM, 402 nM and 1940 nM, respectively.
Take `Cc1cc(C#N)nn1-c1nc(-n2cnc3cc(Nc4cnn(C5CNC5)c4)ccc32)ccc1C(C)O` (stereo not drawn) [Example 72, 1-[6-[5-[[1-(Azetidin-3-yl)pyrazol-4-yl]amino]benzimidazol-1-yl]-3-(1-hydroxyethyl)-2-pyridyl]-5-methyl-pyrazole-3-carbonitrile]: the IC50 at SIK1 worked out at 5 nM; on SIK2, 1 nM; at SIK3, 2.1 nM.
Regarding `COc1cc2ncn(-c3ccc([C@H](C)O)c(-c4ccc(F)cc4OC)n3)c2cc1OC` [Example 21, (S)-1-(6-(5,6-Dimethoxy-1H-benzo[d]imidazol-1-yl)-2-(4-fluoro-2-methoxyphenyl)pyridin-3-yl)ethan-1-ol], the IC50 at SIK1 came out at 192 nM; on SIK2 it was 135 nM; on SIK3, 543 nM.
For `COC(=N)c1cc(C)n(-c2nc(-n3cnc4cc(Nc5ccc(C)nn5)ccc43)ccc2[C@H](C)O)n1` [Example 276, 1-[3-[(1S)-1-hydroxyethyl]-6-[5-[(6-methylpyridazin-3-yl)amino]benzimidazol-1-yl]-2-pyridyl]-5-methyl-pyrazole-3-carboximidic acid methyl ester] the same measures were 82 nM, 2.3 nM and 1.8 nM.
As to `Cc1ccc(Nc2cc3ncn(-c4ccc(C(C)O)c(-n5nc(C#N)cc5C)n4)c3cc2C(F)(F)F)nn1` (stereo not drawn) [Example 275, 1-[3-(1-hydroxyethyl)-6-[5-[(6-methylpyridazin-3-yl)amino]-6-(trifluoromethyl)benzimidazol-1-yl]-2-pyridyl]-5-methyl-pyrazole-3-carbonitrile], the IC50 turned out to be 800 nM on SIK1, 6.1 nM at SIK2 and 15.9 nM at SIK3.
For `Cc1cc(C#N)nn1-c1nc(-n2cnc3cc(Nc4cccn(C)c4=O)ccc32)ccc1C(C)O` (stereo not drawn) [Example 333, 1-[3-(1-hydroxyethyl)-6-[5-[(2-keto-1-methyl-3-pyridyl)amino]benzimidazol-1-yl]-2-pyridyl]-5-methyl-pyrazole-3-carbonitrile] the same measures were 41 nM, 25.1 nM and 19.4 nM.
With `Cc1cc(C#N)nn1-c1nc(-n2cnc3cc(Nc4ccc(C5COC5)nn4)ccc32)ccc1C(C)O` (stereo not drawn) [Example 228, 1-[3-(1-Hydroxyethyl)-6-[5-[[6-(oxetan-3-yl)pyridazin-3-yl]amino]benzimidazol-1-yl]-2-pyridyl]-5-methyl-pyrazole-3-carbonitrile], the IC50 on SIK1 stood at 91 nM; on SIK2, 1 nM; on SIK3, 0.9 nM.
For the compound `Cc1cc(C#N)nn1-c1nc(-n2cnc3cc(NC4CCN(C)C(=O)C4)ccc32)ccc1C(C)O` (stereo not drawn) [Example 155, 1-[3-(1-Hydroxyethyl)-6-[5-[(2-keto-1-methyl-4-piperidyl)amino]benzimidazol-1-yl]-2-pyridyl]-5-methyl-pyrazole-3-carbonitrile], the IC50 on SIK1 is 361 nM; at SIK2, 90.2 nM; at SIK3, 26.5 nM.
Consider `Cc1cc(C#N)nn1-c1nc(-n2cnc3cc(NC4CC(=O)N(C)C4)ccc32)ccc1C(C)O` (stereo not drawn) [Example 161, 1-[3-(1-Hydroxyethyl)-6-[5-[(5-keto-1-methyl-pyrrolidin-3-yl)amino]benzimidazol-1-yl]-2-pyridyl]-5-methyl-pyrazole-3-carbonitrile], for which the IC50 is 450 nM on SIK1, 181 nM on SIK2 and 66.1 nM on SIK3.
Consider `COCCn1cc(-c2nc(-n3cnc4cc(Nc5ccc(C)nn5)ccc43)ccc2C(C)O)c(C)n1` (stereo not drawn) [Example 265, 1-[2-[1-(2-Methoxyethyl)-3-methyl-pyrazol-4-yl]-6-[5-[(6-methylpyridazin-3-yl)amino]benzimidazol-1-yl]-3-pyridyl]ethanol; formic acid], for which the IC50 on SIK1 is 270 nM; at SIK2 it was 1.6 nM; at SIK3, 1.7 nM.
Turning to `Cc1ccc(Nc2ccc3c(c2)ncn3-c2ccc(C(C)O)c(N3CCC4(C3)CC4(F)F)n2)nn1` (stereo not drawn) [Example 299, 1-[2-(2,2-difluoro-5-azaspiro[2.4]heptan-5-yl)-6-[5-[(6-methylpyridazin-3-yl)amino]benzimidazol-1-yl]-3-pyridyl]ethanol], the results for the IC50 at SIK1, at SIK2 and on SIK3 were 273 nM, 2.4 nM and 0.7 nM, respectively.

The values above are taken from patent US20240383875A1, “Benzimidazole Pyridine Derivatives” (Hoffmann-La Roche Inc., priority 2022, published 2024).
